“And” between values parts separate entries of the source, which are not always exact repeats. Equal values may be shown once.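 Compound exposure: 48 hours, 5 concentrations, 96-well plates. At the GI50, growth is halved. TGI: total growth inhibition.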
Assays:
Assay in all cases: inhibition of tumour cell growth, NCI panel, 48 h
[1] = test system: SNB-78 CNS
[2] = test system: DMS 273 small cell lung
[3] = test system: M19-MEL melanoma
[4] = test system: KM20L2 colon
[5] = test system: DMS 114 small cell lung
[6] = test system: HOP-18 NSCLC
[7] = test system: RXF-631 renal
[8] = test system: XF 498 CNS
[9] = test system: MDA-N

CCOC(=O)C1=C(C)N(Cc2ccccc2)C(=O)C1CC#N (centres undefined)
TGI [1]: > 100 µM | TGI [2]: > 100 µM | TGI [3]: > 100 µM | TGI [4]: > 100 µM | TGI [5]: > 100 µM | TGI [6]: > 100 µM

C=C(C)C1CC=C(C)CC1 (centres undefined)
GI50 [1]: > 100 µM | TGI [1]: > 100 µM and 1960 µM | GI50 [2]: > 100 µM | TGI [2]: > 100 µM and 1720 µM | GI50 [3]: > 100 µM | TGI [3]: > 100 µM and 1580 µM | GI50 [4]: > 100 µM | TGI [4]: > 100 µM and 1750 µM | GI50 [7]: > 100 µM | TGI [7]: > 100 µM and 1720 µM | GI50 [5]: > 100 µM | TGI [5]: > 100 µM and 1650 µM | GI50 [8]: > 100 µM | TGI [8]: > 100 µM and 1720 µM | TGI [6]: > 100 µM

COC(=O)NC(=Nc1ccc(Oc2ccccc2)cc1NC=O)NC(=O)OC
TGI [3]: > 100 µM | TGI [4]: 0.49 µM | TGI [5]: 0.864 µM | TGI [8]: 6.75 µM | TGI [6]: > 100 µM

COc1ccc2c(c1)C1OCCNC1CC2 (centres undefined)
TGI [9]: > 100 µM

O=S(=O)(c1ccc(Br)cc1)N1CCN(S(=O)(=O)c2ccc(Br)cc2)CC1
TGI [9]: > 100 µM

O=C(CC1(O)C(=O)Nc2ccccc21)c1ccc(F)cc1 (centres undefined)
TGI [1]: > 100 µM | TGI [2]: > 100 µM | TGI [3]: > 100 µM | TGI [4]: > 100 µM | TGI [5]: > 100 µM | TGI [8]: > 100 µM

C1COCCOCCOCCOCCOCCO1.[Cl][Sn]([Cl])([c]1ccccc1)[c]1ccccc1
GI50 [4]: 7.02 µM | TGI [4]: 18.2 µM

C/C=C(/CCC1NCCC2c3ccccc3NC12)[Si](C)(C)C (centres undefined)
TGI [1]: 26.2 µM | TGI [2]: 21.7 µM | TGI [3]: 24.8 µM | TGI [4]: 16.2 µM | TGI [7]: 23.4 µM | TGI [5]: 14.3 µM | TGI [8]: 12.1 µM | TGI [6]: 26.7 µM

CSc1nc2c(nc(N)n2C2OC(COC(C)=O)C(OC(C)=O)C(OC(C)=O)C2OC(C)=O)c(=O)n1C (centres undefined)
TGI [1]: > 100 µM | TGI [4]: > 100 µM | TGI [7]: > 100 µM | TGI [5]: > 100 µM | TGI [8]: > 100 µM | TGI [6]: > 100 µM

c1cc(CSSCc2ccncc2)ccn1
TGI [9]: 62.9 µM

CSCC[C@H](NC(=O)[C@H](CC(C)C)NC(=O)[C@@H](Cc1ccccc1)NC(=O)CNC(=O)[C@@H](NC(=O)[C@H](C)NC(=O)[C@H](Cc1c[nH]c2ccccc12)NC(=O)[C@H](CCC(N)=O)NC(=O)[C@H](N)CC(N)=O)C(C)C)C(N)=O
TGI [9]: > 12.5 µM

CC(=O)[CH-]C(=O)c1ccccc1.CC(=O)[CH-]C(=O)c1ccccc1.CC[C@H](/C=C/C(C)[C@H]1CCC2[C@@H]3CC=C4C[C@@H]([O-])CC[C@]4(C)C3CC[C@@]21C)C(C)C.CC[O-].[Ti+4] (some centres undefined)
GI50 [2]: > 100 µM | TGI [2]: > 100 µM | GI50 [3]: > 100 µM | TGI [3]: > 100 µM | GI50 [4]: > 100 µM | TGI [4]: > 100 µM

N#CC1(Nc2ccc(-c3ccc(NC4(C#N)CCCC4)cc3)cc2)CCCC1
TGI [9]: > 100 µM

Cn1c(=O)c2ccc(-c3ccc(Br)cc3)nc2n(C)c1=O
TGI [1]: > 100 µM | TGI [2]: > 100 µM | TGI [3]: > 100 µM | TGI [7]: > 100 µM | TGI [5]: > 100 µM | TGI [8]: > 100 µM | TGI [6]: > 100 µM

C=C1COC(O)(C2OCOC(C3CC(=O)NC(=O)C3)C2O)C1C (centres undefined)
TGI [1]: 0.0971 µM and 0.0358 µM | TGI [2]: 0.0283 µM and 0.0417 µM | TGI [3]: 0.00849 µM and 0.0215 µM | TGI [4]: 0.0281 µM and 0.0721 µM | TGI [7]: 0.0249 µM and 0.0329 µM | TGI [5]: 0.0271 µM and 0.0437 µM | GI50 [6]: 0.0112 µM | TGI [6]: 0.035 µM and 0.0686 µM | TGI [9]: 0.0289 µM

CC(=O)[CH-]C(=O)c1ccccc1.CC(=O)[CH-]C(=O)c1ccccc1.CC1(C)OCC(C2OC3OC(C)(C)OC3C2[O-])O1.CC1(C)OCC(C2OC3OC(C)(C)OC3C2[O-])O1.[Ti+4] (centres undefined)
GI50 [3]: 4.91 µM | TGI [3]: > 100 µM | GI50 [4]: 29.6 µM | TGI [4]: > 100 µM

COc1cccc(NC(=O)C(C)(C)C)c1SSc1c(NC(=O)C(C)(C)C)cccc1OC
TGI [1]: 51.2 µM | TGI [2]: > 100 µM | TGI [3]: > 100 µM | TGI [4]: > 100 µM | TGI [8]: 35.7 µM | TGI [6]: > 100 µM

NS(=O)(=O)c1ccc(NCc2cnc3ccccc3n2)cc1
TGI [9]: > 100 µM

Cc1cc2nc3ccc(=[N+](C)C)cc-3sc2cc1N
TGI [1]: 54.9 µM | TGI [2]: 12.2 µM | TGI [3]: 0.354 µM | TGI [4]: 41.5 µM | TGI [5]: 2.79 µM | TGI [6]: 36.6 µM | TGI [9]: 2.35 µM

O=S1(=O)NC2CCC3NS(=O)(=O)NC4CCC(N1)N4S(=O)(=O)N23 (centres undefined)
TGI [9]: > 100 µM

C[C@]12CC[C@H]3[C@@H](CCC4=CC(=O)CC[C@@]43C)[C@@H]1CC[C@@H]2C(=O)COS(=O)(=O)c1ccc(Br)cc1
TGI [9]: 33.8 µM

CCOc1ccc2c(C)cc(=O)oc2c1
TGI [9]: > 100 µM

Cc1ccc(NC(=O)CC/C(CC(=O)C(C)(C)C)=N/NC(=O)C[N+](C)(C)C)cc1C
TGI [1]: > 100 µM | TGI [3]: > 100 µM | TGI [4]: > 100 µM | TGI [5]: > 100 µM | TGI [6]: > 100 µM

COc1ccc(CNC(C)C(=O)O)cc1 (centres undefined)
TGI [9]: > 100 µM

COC(=O)NN1C(C)=C(C(=O)OC)C2(C#N)C(C(=O)OC)=C(C)N(NC(=O)OC)C12N (centres undefined)
TGI [1]: > 100 µM | TGI [2]: > 100 µM | TGI [3]: > 100 µM | TGI [4]: > 100 µM | TGI [7]: > 100 µM | TGI [5]: > 100 µM | TGI [8]: > 100 µM | TGI [6]: > 100 µM

CC1(C)CCCC(C)(C2CCC3(C)C2C(O)CC2C4(C)CCC(O)C(C)(C)C4C(O)CC23C)O1 (centres undefined)
TGI [9]: 30.8 µM

COC(=O)C[CH2][Ge]([CH3])([CH3])[S]c1ccccc1
GI50 [1]: 59.5 µM | TGI [1]: > 100 µM | GI50 [2]: 42.6 µM | TGI [2]: > 100 µM | GI50 [3]: 36.8 µM | TGI [3]: > 100 µM | GI50 [4]: 38.4 µM | TGI [4]: > 100 µM | GI50 [6]: > 100 µM | TGI [6]: > 100 µM

COC1=C(Br)C(O)C2(C=C1Br)CC(C(=O)NCCCCNC(=O)C1=NOC3(C=C(Br)C(OC)=C(Br)C3O)C1)=NO2 (centres undefined)
TGI [9]: 39.7 µM

CC(C)=CCC1=C(OCC(=O)O)C(=O)c2ccccc2C1=O
TGI [9]: 34.8 µM

COc1cc2oc(-c3ccc(O)cc3O)c(CC=C(C)C)c(=O)c2c(O)c1/C=C/C(C)C
TGI [9]: 8.34 µM

NC(=O)c1ncn(CCN2CCN(C(=O)NCCCCCCNC(=O)N3CCN(CCn4cnc(C(N)=O)c4N)CC3)CC2)c1N
TGI [1]: > 100 µM | TGI [2]: > 100 µM | TGI [4]: > 100 µM | TGI [7]: > 100 µM | TGI [8]: > 100 µM | TGI [6]: > 100 µM

COc1ccc2c(c1)[n+]([O-])c(-c1ccc(Br)cc1)c(N)[n+]2[O-]
TGI [1]: > 100 µM | TGI [2]: 68.9 µM | TGI [3]: > 100 µM | TGI [4]: > 100 µM | TGI [5]: 57.9 µM | TGI [8]: > 100 µM | TGI [6]: > 100 µM

NC(=S)N/N=C/c1ccc(N)cn1
TGI [9]: > 10 µM

COC(=O)C1=Cc2cc(OC)c(OC)cc2[C@H](c2ccc(OC)c(OC)c2)C1C(=O)OC (some centres undefined)
TGI [1]: > 100 µM | TGI [2]: > 100 µM | TGI [3]: > 100 µM | TGI [4]: > 100 µM | TGI [5]: > 100 µM | TGI [8]: > 100 µM

Cc1cc(=O)n2c3c(c4c(cc13)c(CO)cc(=O)n4C)OC2
TGI [1]: > 100 µM | TGI [2]: > 100 µM | TGI [3]: 46.4 µM | TGI [4]: > 100 µM | TGI [7]: 38.9 µM | TGI [5]: 47.5 µM | TGI [8]: 32.4 µM | TGI [6]: 62.6 µM

N.N.O=P([O-])([O-])CN(CCN(CP(=O)([O-])[O-])CP(=O)([O-])[O-])CP(=O)([O-])[O-].[Pt+2]
GI50 [4]: > 100 µM | TGI [4]: > 100 µM

Source: PubChem BioAssay (NCI)
